US12440472B2, “Stable tryptamine oral films” (INTELGENX CORP., priority 2021, dated 2025)

Legend:
[1] = Stability studies comparing phosphoric acid with citric acid and antioxidants/stabilizers (films stored at 50 C); details: compared with film made with only phosphoric acid, 50 C. for two weeks
[2] = administered orally; cited from earlier work

Row | Molecule | degradation products / impurity profile of psilocybin film with stabilizer or acid [1] | degradation products / impurity profile of psilocybin film with stabilizer or acid ([1]; listed as copper) | drug absorbed into the bloodstream [2] | time of maximum plasma concentration [2]
1 | Cc1cc(C(C)(C)C)c(O)c(C(C)(C)C)c1 [BHT] | promoting the degradation | – | – | –
2 | [Cl][Cu][Cl] [copper chloride, Copper (II) chloride] | no effect | promoting the degradation | – | –
3 | CN(C)CCc1c[nH]c2cccc(OP(=O)(O)O)c12 [psilocybin] | – | – | about 50% | approximately 80 minutes
4 | vitamin E | promoting the degradation | – | – | –
